For 28 molecules, IC50 results are on record in patent publication US9944647B2 (Incyte Corporation, priority 2015, dated 2018).

Broadly, the IC50 is the point on the concentration scale where inhibition reaches its midpoint. A high value points to weaker potency.

Structures are written as SMILES. A value given as a limit tells only on which side of the number the result lay.

The target in this test is LSD-1 enzyme (Homo sapiens (Human), UniProt O60341). The test can be described thus: LANCE LSD1/KDM1A demethylase assay (LSD1 histone demethylase biochemical assay). To be noted: 1 nM LSD-1 enzyme, 1 hour preincubation at 25° C., Biotin-labeled Histone H3 peptide substrate. The procedure:
Example A: LSD1 Histone Demethylase Biochemical Assay
LANCE LSD1/KDM1A demethylase assay—10 μL of 1 nM LSD-1 enzyme (ENZO BML-SE544-0050) in the assay buffer (50 mM Tris, pH 7.5, 0.01% Tween-20, 25 mM NaCl, 5 mM DTT) were preincubated for 1 hour at 25° C. with 0.8 μL compound/DMSO dotted in black 384 well polystyrene plates. […] Reactions were stopped by addition of 10 μL 1×LANCE Detection Buffer (PerkinElmer CR97-100) supplemented with 1.5 nM Eu-anti-unmodified H3K4 Antibody (PerkinElmer TRF0404), and 225 nM LANCE Ultra Streptavidin (PerkinElmer TRF102) along with 0.9 mM Tranylcypromine-HCl (Millipore 616431). After stopping the reactions plates were incubated for 30 minutes and read on a PHERAstar FS plate reader (BMG Labtech).
On the technique in general: TR-FRET usually uses a lanthanide donor and a delayed reading to cut background.
Molecule `CN1CCC[C@@H](COc2nc(-c3ccc(C#N)cc3)c(-c3ccc4c(c3)C(O)CC4)c3nccn23)C1` (stereo partly drawn) [Example 123, 4-(8-(3-hydroxy-2,3-dihydro-1H-inden-5-yl)-5-{[(3R)-1-methylpiperidin-3-yl]methoxy}imidazo[1,2-c]pyrimidin-7-yl)benzonitrile] gave an IC50 not above 50 nM.

Molecule `CN1CCC[C@@H](COc2nc(-c3ccc(C#N)cc3)c(-c3ccc4c(c3)ncn4C)c3nccn23)C1` [Example 17, 4-(8-(1-methyl-1H-benzimidazol-5-yl)-5-{[(3R)-1-methylpiperidin-3-yl]methoxy}imidazo[1,2-c]pyrimidin-7-yl)benzonitrile] displayed an IC50 not above 50 nM.

In turn, `CN(C)C1CCN(c2nc(-c3ccc(C#N)cc3)c(-c3ccc4nccnc4c3)c3nccn23)CC1` [Example 126, 4-{5-[4-(dimethylamino)piperidin-1-yl]-8-quinoxalin-6-ylimidazo[1,2-c]pyrimidin-7-yl}benzonitrile] returned an IC50 of 50 to 500 nM.

As for `Cc1ncc(-c2c(-c3ccc(C#N)cc3)nc(N3CCC(N(C)C)CC3)n3ccnc23)cc1F` [Example 113, 4-[5-[4-(dimethylamino)piperidin-1-yl]-8-(5-fluoro-6-methylpyridin-3-yl)imidazo[1,2-c]pyrimidin-7-yl]benzonitrile], the IC50 is not above 50 nM.

Consider `Cc1ccc(-c2c(-c3ccc(C#N)cc3)nc(N3CCC(N(C)C)CC3)n3ccnc23)c(CO)c1` [Example 111, 4-{5-[4-(dimethylamino)piperidin-1-yl]-8-[2-(hydroxymethyl)-4-methylphenyl]imidazo[1,2-c]pyrimidin-7-yl}benzonitrile], for which the half-maximal inhibitory concentration (IC50) was not above 50 nM.

Regarding `CN1CC[C@@H](COc2nc(-c3ccc(C#N)cc3)c(-c3ccc4c(cnn4C)c3)c3nccn23)C1` [Example 27, 4-(8-(1-methyl-1H-indazol-5-yl)-5-{[(3R)-1-methylpyrrolidin-3-yl]methoxy}imidazo[1,2-c]pyrimidin-7-yl)benzonitrile], the concentration for half-maximal inhibition (IC50) was not above 50 nM.

`COc1ncc(-c2c(-c3ccc(C#N)cc3)nc(N3CCC(N(C)C)CC3)n3ccnc23)cc1F` [Example 49, 4-[5-[4-(dimethylamino)piperidin-1-yl]-8-(5-fluoro-6-methoxypyridin-3-yl)imidazo[1,2-c]pyrimidin-7-yl]benzonitrile] showed an IC50 not above 50 nM.

With `CN(C)C1CCN(c2nc(-c3ccc(C#N)cc3)c(-c3ccc4c(c3)oc(=O)n4C)c3nccn23)CC1` [Example 47, 4-[5-[4-(dimethylamino)piperidin-1-yl]-8-(3-methyl-2-oxo-2,3-dihydro-1,3-benzoxazol-6-yl)imidazo[1,2-c]pyrimidin-7-yl]benzonitrile], the IC50 is not above 50 nM.

As for `Cc1cc(-c2c(-c3ccc(C#N)cc3)nc(N3CCC(N(C)C)CC3)n3ccnc23)ccc1CO` [Example 91, 4-{5-[4-(dimethylamino)piperidin-1-yl]-8-[4-(hydroxymethyl)-3-methylphenyl]imidazo[1,2-c]pyrimidin-7-yl}benzonitrile], the IC50 was not above 50 nM.

`CN1CCC[C@@H](COc2nc(-c3ccc(C#N)cc3)c(-c3ccc4c(c3)nc(C(F)F)n4C)c3nccn23)C1` [Example 64, 4-(8-[2-(difluoromethyl)-1-methyl-1H-benzimidazol-5-yl]-5-{[(3R)-1-methylpiperidin-3-yl]methoxy}imidazo[1,2-c]pyrimidin-7-yl)benzonitrile]: the 50% inhibitory concentration (IC50) was not above 50 nM.

For the molecule `CC(C)c1ccc(-c2c(-c3ccc(C#N)cc3)nc(N3CCC(N(C)C)CC3)n3ccnc23)cn1` [Example 118, 4-[5-[4-(dimethylamino)piperidin-1-yl]-8-(6-isopropylpyridin-3-yl)imidazo[1,2-c]pyrimidin-7-yl]benzonitrile], the 50% inhibitory concentration (IC50) was 50 to 500 nM.

Molecule `CN1CCC[C@@H](COc2nc(-c3ccc(C#N)cc3)c(-c3ccc4c(c3)OC(=O)N(C)C4)c3nccn23)C1` [Example 43, 4-(8-(3-methyl-2-oxo-3,4-dihydro-2H-1,3-benzoxazin-7-yl)-5-{[(3R)-1-methylpiperidin-3-yl]methoxy}imidazo[1,2-c]pyrimidin-7-yl)benzonitrile] gave an IC50 not above 50 nM.

In the case of `COC(=O)N(C)Cc1ccc(-c2c(-c3ccc(C#N)cc3)nc(OC[C@@H]3CCCN(C)C3)n3ccnc23)cc1F` [Example 40, methyl[4-(7-(4-cyanophenyl)-5-{[(3R)-1-methylpiperidin-3-yl]methoxy}imidazo[1,2-c]pyrimidin-8-yl)-2-fluorobenzyl]methylcarbamate], the concentration for half-maximal inhibition (IC50) was not above 50 nM.

In the case of `CN(C)C1CCN(c2nc(-c3ccc(C#N)cc3)c(-c3cc4oc(=O)n(C)c4cc3F)c3nccn23)CC1` [Example 54, 4-[5-[4-(dimethylamino)piperidin-1-yl]-8-(5-fluoro-3-methyl-2-oxo-2,3-dihydro-1,3-benzoxazol-6-yl)imidazo[1,2-c]pyrimidin-7-yl]benzonitrile], the half-maximal inhibitory concentration (IC50) is not above 50 nM.

`Cc1cc(-c2c(-c3ccc(C#N)cc3)nc(N3CCC(N(C)C)CC3)n3ccnc23)cnc1C` [Example 68, 4-[5-[4-(dimethylamino)piperidin-1-yl]-8-(5,6-dimethylpyridin-3-yl)imidazo[1,2-c]pyrimidin-7-yl]benzonitrile] had a concentration for half-maximal inhibition (IC50) not above 50 nM.

For `CN(C)C1CCN(c2nc(-c3ccc(C#N)cc3)c(-c3ccc(N4CCCC4=O)nc3)c3nccn23)CC1` [Example 50, 4-{5-[4-(dimethylamino)piperidin-1-yl]-8-[6-(2-oxopyrrolidin-1-yl)pyridin-3-yl]imidazo[1,2-c]pyrimidin-7-yl}benzonitrile], the IC50 was in the range of 50 to 500 nM.

`CN1C(=O)Cc2cc(-c3c(-c4ccc(C#N)cc4)nc(N4CCC(N(C)C)CC4)n4ccnc34)ccc21` [Example 62, 4-[5-[4-(dimethylamino)piperidin-1-yl]-8-(1-methyl-2-oxo-2,3-dihydro-1H-indol-5-yl)imidazo[1,2-c]pyrimidin-7-yl]benzonitrile] came in with an IC50 not above 50 nM.

`Cc1ccc(-c2c(-c3ccc(C#N)cc3)nc(N3CCC(N(C)C)CC3)n3ccnc23)cn1` [Example 112, 4-[5-[4-(dimethylamino)piperidin-1-yl]-8-(6-methylpyridin-3-yl)imidazo[1,2-c]pyrimidin-7-yl]benzonitrile] displayed a concentration for half-maximal inhibition (IC50) of 50 to 500 nM.

With `COC(=O)N(C)c1ccc(-c2c(-c3ccc(C#N)cc3)nc(N3CCC(N(C)C)CC3)n3ccnc23)cn1` [Example 67], the IC50 is 50 to 500 nM.

Turning to `CN(C)C1CCN(c2nc(-c3ccc(C#N)cc3)c(-c3cc(F)c4c(c3)n(C)c(=O)n4C)c3nccn23)CC1` [Example 128, 4-[5-[4-(dimethylamino)piperidin-1-yl]-8-(7-fluoro-1,3-dimethyl-2-oxo-2,3-dihydro-1H-benzimidazol-5-yl)imidazo[1,2-c]pyrimidin-7-yl]benzonitrile], the concentration for half-maximal inhibition (IC50) was not above 50 nM.

`CN1CCC[C@@H](COc2nc(-c3ccc(C#N)cc3)c(-c3ccc(CN4CCOCC4)cc3F)c3nccn23)C1` [Example 95, 4-(8-[2-fluoro-4-(morpholin-4-ylmethyl)phenyl]-5-{[(3R)-1-methylpiperidin-3-yl]methoxy}imidazo[1,2-c]pyrimidin-7-yl)benzonitrile] displayed a half-maximal inhibitory concentration (IC50) not above 50 nM.

Turning to `CN1CCC[C@@H](COc2nc(-c3ccc(C#N)cc3)c(-c3ccc(CCN4CCOCC4)cc3)c3nccn23)C1` [Example 11, 4-{5-{[(3R)-1-methylpiperidin-3-yl]methoxy}-8-[4-(2-morpholin-4-ylethyl)phenyl]imidazo[1,2-c]pyrimidin-7-yl}benzonitrile], the IC50 lay within 50 to 500 nM.

Regarding `Cc1nc2cc(-c3c(-c4ccc(C#N)cc4)nc(OC[C@@H]4CCCN(C)C4)n4ccnc34)ccc2n1C` [Example 65, 4-(8-(1,2-dimethyl-1H-benzimidazol-5-yl)-5-{[(3R)-1-methylpiperidin-3-yl]methoxy}imidazo[1,2-c]pyrimidin-7-yl)benzonitrile], the IC50 is not above 50 nM.

In turn, `COc1ncc(-c2c(-c3ccc(C#N)cc3)nc(N3CCC(N(C)C)CC3)n3ccnc23)cc1C` [Example 53, 4-[5-[4-(dimethylamino)piperidin-1-yl]-8-(6-methoxy-5-methylpyridin-3-yl)imidazo[1,2-c]pyrimidin-7-yl]benzonitrile] gave an IC50 not above 50 nM.

Consider `CC(C)c1ccc(-c2c(-c3ccc(C#N)cc3)nc(OC[C@@H]3CCCN(C)C3)n3ccnc23)cn1` [Example 108, 4-(8-(6-isopropylpyridin-3-yl)-5-{[(3R)-1-methylpiperidin-3-yl]methoxy}imidazo[1,2-c]pyrimidin-7-yl)benzonitrile], for which the IC50 was 50 to 500 nM.

Molecule `COc1ncc(-c2c(-c3ccc(C#N)cc3)nc(OC[C@@H]3CCCN(C)C3)n3ccnc23)cc1Cl` [Example 88, 4-(8-(5-chloro-6-methoxypyridin-3-yl)-5-{[(3R)-1-methylpiperidin-3-yl]methoxy}imidazo[1,2-c]pyrimidin-7-yl)benzonitrile] had an IC50 not above 50 nM.

For the molecule `CN1CCC[C@@H](COc2nc(-c3ccc(C#N)cc3)c(-c3ccc(CN4CCOCC4)c(F)c3)c3nccn23)C1` [Example 80, 4-(8-[3-fluoro-4-(morpholin-4-ylmethyl)phenyl]-5-{[(3R)-1-methylpiperidin-3-yl]methoxy}imidazo[1,2-c]pyrimidin-7-yl)benzonitrile], the half-inhibitory concentration (IC50) was not above 50 nM.

With `Cc1ncc(-c2c(-c3ccc(C#N)cc3)nc(OC[C@@H]3CCCN(C)C3)n3ccnc23)cc1Cl` [Example 92, 4-(8-(5-chloro-6-methylpyridin-3-yl)-5-{[(3R)-1-methylpiperidin-3-yl]methoxy}imidazo[1,2-c]pyrimidin-7-yl)benzonitrile], the IC50 was not above 50 nM.
